Results as given in patent publication US20080096830A1, “Anti-Inflammatory Macrolide Conjugates” (priority 2005, published 2008).

Columns and labels:
[1] = molecular target: T1, Human Prostaglandin-H Synthase-2 (hPGH-2), COX-2 (Homo sapiens, UniProt P35354); assay: Human prostaglandin-H synthase-2 (hPGH-2) inhibition assay in transfected COS-7 cells (PGE-2); assay type: cell-based; conditions: COS-7 cells transfected with hPGH-2, arachidonic acid 20 μM, PGE-2 readout
T1 construct: expressed in transfected cells; host or cells: COS-7
T1 sequence (P35354 18-604): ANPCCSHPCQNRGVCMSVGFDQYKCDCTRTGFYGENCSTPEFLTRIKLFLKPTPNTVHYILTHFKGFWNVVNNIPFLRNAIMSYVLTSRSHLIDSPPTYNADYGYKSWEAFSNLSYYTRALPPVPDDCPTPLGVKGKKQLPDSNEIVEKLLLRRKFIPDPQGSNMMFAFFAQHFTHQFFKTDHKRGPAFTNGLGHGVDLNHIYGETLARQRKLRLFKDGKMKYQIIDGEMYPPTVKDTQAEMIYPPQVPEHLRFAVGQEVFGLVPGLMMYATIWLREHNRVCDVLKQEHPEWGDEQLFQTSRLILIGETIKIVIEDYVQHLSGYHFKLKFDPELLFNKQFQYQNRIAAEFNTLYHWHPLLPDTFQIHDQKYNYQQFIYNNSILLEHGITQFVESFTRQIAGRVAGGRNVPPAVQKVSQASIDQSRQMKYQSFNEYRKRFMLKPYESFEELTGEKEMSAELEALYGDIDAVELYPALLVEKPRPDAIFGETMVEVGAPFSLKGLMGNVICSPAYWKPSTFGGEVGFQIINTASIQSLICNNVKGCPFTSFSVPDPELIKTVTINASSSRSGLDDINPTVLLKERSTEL
Experimental: The cells were grown in 10% fetal bovine serum (FBS) in DMEM medium (Invitrogen Life Technologies) at 37° C. in an atmosphere with 5% CO2 and 90% moisture. 20 000 cells/well were plated in 96 well plate (Falcon). The cells in a negative control were cultured only in medium (NC), while the secretion of TNF-α in a positive control was stimulated by the addition of 500 pg/mL lipopolysaccharide (LPS, E. coli serotype 0111:B4, Sigma) (PC). The effect of the tested substances on TNF-α secretion was assessed after their addition to cell cultures stimulated with LPS (TS). […] The percentage inhibition of TNF-α production was calculated by the following equation: % inhibition=[1-(TS-NC)/(PC-NC)]×100. IC50 value was defined as the concentration of the substance at which 50% of TNF-α production was inhibited. […] After 30 minutes supernatants were removed and prostoglandin E2 (PGE-2) was measured with a PGE-2 assay kit (Cayman) following the manufacturer's instructions. No production of PGE-2 was detected in negative controls. % inhibition was calculated by the following equation: % inhibition=(1-sample PGE-2 concentration/positive control PGE-2 concentration)*100.

[2] = tested on: eosinophil number in BAL fluid; assay: Model of lung eosinophilia in mice; assay type: in vivo, Balb/C mice; conditions: OVA-sensitised mice, i.n. or i.p. dosing, compared to the vehicle treated control group
Experimental: Male Balb/C mice with a body weight of 20-25 g were randomly divided into groups, and sensitized by an i.p. injection of ovalbumin (OVA, Sigma) on day zero and day fourteen. On the twentieth day, the mice were subjected to a challenge test by i.n. (intranasal) application of OVA (positive control or test group) or PBS (negative control). 48 hours after i.n. application of OVA, the animals were anaesthetized and the lungs were rinsed with 1 mL of PBS. The cells were separated on a Cytospin 3 cytocentrifuge (Shandon). The cells were stained in Diff-Quick (Dade) and the percentage of eosinophils was determined by differential counting of at least 100 cells. The compounds were administered daily i.n. or i.p. in different doses 2 days before the provocative test and up to the completion of the test. Compounds were administered as suspension either in carboxymethyl cellulose or in lactose solution. Fluticasone and beclomethasone were used as standard anti-inflammatory substances for comparison.

SMILES | IC50 [1] [µM] | inhibition of relative eosinophil number in BAL fluid [2]
CCC1OC(=O)C(C)C(OC2CC(C)(OC)C(O)C(C)O2)C(C)C(OC2OC(C)CC(N(C)CCCNC(=O)C=Cc3cc4c(s3)-c3cc(Cl)ccc3Sc3ccccc3-4)C2O)C(C)(O)CC(C)CN(C)C(C)C(O)C1(C)O (centres unmarked) [Compound 15] | < 10 | 
CCC1OC(=O)C(C)C(O)C(C)C(OC2OC(C)CC(N(C)C)C2O)C(C)(O)CC(C)CN(CCCNC(=O)C=Cc2cc3c(s2)-c2cc(C)ccc2Sc2ccccc2-3)C(C)C(O)C1(C)O (centres unmarked) [Compound 21] |  | statistically significant inhibition
